# Assay results as given in PubChem BioAssay (NCI).
#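 Step 1: Grow cells in 96-well plates. Step 2: Expose to compound for 48 hours at 5 concentrations. Step 3: Interpolate endpoints linearly; if unreached, use highest concentration. Abbreviation: GI50, concentration required for 50% inhibition of growth. At the TGI there is no net growth.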
# Assays:
# Assay in all cases: NCI-60 cell line screen, 48 h
# [1] = system: OVCAR-5 ovarian
# [2] = system: CCRF-CEM leukemia
# [3] = system: IGROV1 ovarian
# [4] = system: NCI-H23 lung
# [5] = system: SR leukemia
# [6] = system: A549 NSCLC
# [7] = system: NCI/ADR-RES ovarian
# [8] = system: OVCAR-3 ovarian
# [9] = system: NCI-H460 lung
# [10] = system: SK-OV-3 ovarian
SMILES,GI50 [1] [µM],TGI [1] [µM],GI50 [2] [µM],TGI [2] [µM],GI50 [3] [µM],TGI [3] [µM],GI50 [4] [µM],TGI [4] [µM],GI50 [5] [µM],TGI [5] [µM],GI50 [6] [µM],TGI [6] [µM],GI50 [7] [µM],TGI [7] [µM],TGI [8] [µM],TGI [9] [µM],TGI [10] [µM],GI50 [8] [µM],GI50 [9] [µM],GI50 [10] [µM]
Cc1cc(N2CCOCC2)nc(N(CCNc2ccnc3cc(Cl)ccc23)Cc2cccs2)n1,2.19,4.73,2.02,6.1,1.96,4.97,3,> 100,1.47,3.94,3.08,12,3.45,> 100,,,,,,
COC(=O)C1CCC2(CC1)NC(=O)NC2=O (stereo unspecified),,> 100,,> 100,,> 100,,> 100,,> 100,,> 100,,,> 100,> 100,> 100,,,
Cc1nn(C(=O)CC(=O)Nc2ccccc2Cl)c(C)c1N=Nc1ccccc1Cl,,> 100,,> 100,,> 100,,> 100,,> 100,,> 100,,,> 100,> 100,> 100,,,
O=C(Nc1cccc(Cl)c1)c1cc2cc(N=Nc3ccc(Br)cc3)ccc2oc1=O,,58,,,,> 100,,64.3,,,,> 100,,,> 100,> 100,> 100,,,
O=C1OC2C(O)COC2(OCc2c[nH]c3ccccc23)C1O (stereo unspecified) (tested in a mixture with another compound),,> 100,,> 100,,> 100,,> 100,,> 100,,> 100,,,> 100,> 100,> 100,,,
COc1ccc2nccc(C3OC(=O)N4CCC(=O)CC34)c2c1 (stereo unspecified),,> 100,,> 100,,> 100,,> 100,,> 100,,> 100,,,> 100,> 100,,,,
Oc1ccc(-c2nc(-c3ccc4oc5ccc(-c6[nH]c(-c7ccc(O)cc7)nc6-c6ccccc6)cc5c4c3)c(-c3ccccc3)[nH]2)cc1,12.1,25.4,,,4.54,96.6,5.2,33.7,1.98,5.17,4.26,25.5,16,> 100,15.2,9.85,42.4,4.3,3.01,17
O=C(/C=C\c1ccc(Cl)c(Cl)c1)c1ccccc1,15.3,31.3,2.68,8.78,6.82,21,,,2.75,9.22,11.5,26.2,5.49,26.4,18.9,32.9,29.8,6.34,15.9,14.1
Cc1cn2cc(-c3ccncc3)nc2s1,,> 100,,> 78.1,,> 100,,> 100,,,,> 100,,,> 100,> 100,> 100,,,
COc1ccc(/C=C(\NC(=O)c2ccccc2)c2nc3ccccc3[nH]2)cc1,,84.5,,> 100,,> 100,,56.1,,89.8,,> 100,,,> 100,> 100,96.5,,,
Cc1ccc(SCN2CCCCC2)cc1 (tested in a mixture with another compound),,25.8,,6.59,,10.9,,22.9,,25.6,,72.8,,57.5,30,,29.7,,,
CCc1cccc(C(C)C)c1C1C(=O)C(=O)N(c2nc3ccccc3s2)C(=O)C1=O,,> 100,,> 100,,> 100,,> 100,,> 100,,> 100,,,> 100,> 100,> 100,,,
O=S(O)CCCSSCCCCSSCCCS(=O)O,,> 100,,> 100,,> 100,,> 100,,,,> 100,,,> 100,> 100,> 100,,,
O=C1c2ccccc2CC1C1(O)C(=O)Nc2c(Cl)cc(Cl)cc21 (stereo unspecified),,> 100,,> 100,,,,> 100,,,,> 100,,,> 100,> 100,> 100,,,
O=C(CN1C(=O)c2ccccc2C1=O)NC1(C(=O)O)CCCC1,,> 100,,> 100,,> 100,,> 100,,> 100,,> 100,,> 100,> 100,,> 100,,,
CCN(CC)CC(C(=O)Nc1c(C)cccc1C)/C(C)=N/NC(N)=S (stereo unspecified),,> 100,,> 100,,> 100,,> 100,,,,> 100,,,> 100,> 100,> 100,,,
O=c1c2ccccc2nc(-c2ccccc2Cl)n1NC1OC(CO)C(O)C(O)C1O (stereo unspecified),,> 100,,> 100,,> 100,,> 100,,,,> 100,,,> 100,> 100,> 100,,,
COc1cc2c(c(OC)c1OC)-c1c(c3ccc([N+](=O)[O-])cc3c(=O)n1CCCN=[N+]=[N-])C2=O,> 100,> 100,> 100,> 100,0.949,33.3,15.2,43.6,,,0.36,> 100,45.3,> 100,> 100,> 100,55.2,45.2,12.3,23.1
COc1cc(C2C(C(=O)Nc3ccc(Cl)c(Cl)c3)=C(C)NC(C)=C2C(=O)Nc2ccc(Cl)c(Cl)c2)ccc1O,,38.8,,13.5,,42,,27.5,,,,31.5,,,27.7,35.5,34.5,,,
CCN(CC)CCCC(C)NC(=S)N/N=C(\C)c1ccccn1 (stereo unspecified),4.89,> 100,4.64,> 100,5.64,> 100,5.22,> 100,2.45,> 100,3.75,> 100,15.6,> 100,> 100,15,,3.87,2.33,
